From patent US20210283217A1, “NEUROMODULATING COMPOSITIONS AND RELATED THERAPEUTIC METHODS FOR THE TREATMENT OF INFLAMMATORY AND AUTOIMMUNE DISEASES” (Flagship Pioneering Innovations V, Inc., priority 2016, published 2021)

Experiments:
primary human T cells = experiment: T cell activation and cytokine secretion assay (LEGENDplex); format: cell-based
Description: Peripheral blood mononuclear cells (PBMCs) were isolated from whole blood by ficoll density separation. Briefly, blood was diluted 1:2 with 0.5 mM EDTA solution in PBS, loaded onto a Ficoll-filled Leucosep tube (Greiner Bio-One), and centrifuged for 20 minutes at 1000×g. After centrifugation, the leukocyte/PBMC layer on top of the separation medium was collected and sequentially washed three times with 0.5 mM EDTA solution in PBS. T cells were isolated from PBMCs using magnetic bead-based separation following vendor specification, e.g., Biolegend MojoSort Human CD4/CD8 Naïve T Cell Isolation Kit protocol. In brief, the PBMCs were labeled with biotinylated antibodies against cell surface receptors for cells not in the population of interest. The labeled cells are then captured by streptavidin-coated magnetic beads and removed by magnetic incubation. The uncaptured cells that flow through the magnetic separation are predominantly comprised of the population of interest, in this instance CD3+ T cells. T cells were stained with a 5 μM solution of Tag-it Violet™ dye (BioLegend) for 20 minutes protected from light. The stain was quenched by incubating the cells in cell culture medium containing 10% FBS (complete media). Stained cells were plated on tissue culture plates and sub-maximally activated with concanavalin A (con A) added to the culture medium. Cells were plated at 0.1×10^6 cells well. […] Cells were collected at 24, 48, and 72 hrs. Supernatants were collected at 24, 48, and 72 hrs and cytokine secretion was analyzed by flow cytometry using a LEGENDplex assay (BioLegend). In brief, following manufacturer's protocol, beads pre-coated with antibodies specific to various cytokines were incubated with cell supernatant. […] The beads were then stained and the captured cytokine composition assessed by flow cytometry.

[1] = test system: T cells in the lymph node; experiment: Lymph node remodeling by hock injection, flow cytometry of lymph node cells; format: in vivo, C57BL/6J mice; settings: hock injection 48.5 nmol followed by quinpirole 0.1 nmol; 24 hours
Description: 24 hours after hock injection, brachial lymph nodes (LN) were harvested in culture medium (RPMI+10% FBS). LNs were transferred to 24-well tissue culture plates containing 0.5 mL LN digestion buffer (RPMI, 2% FBS, collagenase D (3.3 mg/mL), and DNAse I (40 ug/mL)). LN capsules were manually opened with two syringe (26G) needles and the LNs were incubated in digestion buffer for 15 minutes. Digested LNs were filtered with a 40 μM cell strainer and tissues were smashed with the plunger of a 5 mL syringe. Collected cells were washed in culture medium and plated for assays. Total number of viable cells were assessed by staining with viability dye eFluor 780 (eBioscience). Surface markers of various immune cell subsets were analyzed by staining the cells with antibodies for cell identity (CD3, CD4, CD8, CD19), for the inflammatory marker CD69, and the migratory marker CCR7. The cells were then assayed by flow cytometry.

macrophages = experiment: Macrophage activation and cytokine secretion assay (M1/M2 polarization); format: cell-based, human
Description: Peripheral blood mononuclear cells (PBMCs) were isolated from whole blood by ficoll density separation. Briefly, blood was diluted 1:2 with 0.5 mM EDTA solution in PBS, loaded onto a Ficoll-filled Leucosep tube (Greiner Bio-One), and centrifuged for 20 minutes at 1000×g. After centrifugation, the leukocyte/PBMC layer was collected and sequentially washed three times with 0.5 mM EDTA solution in PBS.
Monocytes (CD14+) were isolated from PBMCs using magnetic bead-based separation following vendor specifications, e.g., Biolegend MojoSort Human CD14 Selection Kit protocol. In brief, PBMCs were labeled with biotinylated antibodies against cell surface receptors for cells not in the population of interest. The labeled cells are then captured by streptavidin-coated magnetic beads and removed by magnetic incubation. The uncaptured cells that flow through the magnetic separation are predominantly comprised of the population of interest, in this case CD14+ monocytes.
Monocytes were differentiated into macrophages by culturing in DMEM complete medium containing 10% FBS for seven days in the presence of 40 ng/mL human M-CSF. Media was changed on day 1 and day 4. On Day 4, macrophages were polarized to various subtypes as follows: M0—incubated with 40 ng/mL M-CSF; M1—cultured with 40 ng/mL M-CSF, 20 ng/mL IFNγ, and 50 ng/mL LPS; M2—incubated with 40 ng/mL M-CSF, 20 ng/mL IL4, 20 ng/mL IL10, and 20 ng/mL TFGB. On day 7, cells were harvested by scraping them from the tissue culture plates and transferring them to 96-well plates.
Supernatants were collected at 24, 48, and 72 hrs and cytokine secretion was analyzed by flow cytometry using a LEGENDplex assay (BioLegend). In brief, following manufacturer's protocol, beads that are pre-coated with antibodies specific to various cytokines were incubated with cell supernatant. […] The beads were then stained and the captured cytokine composition assessed by flow cytometry.
M1 macrophage polarization is defined as increase in production of IL-12, TNF, IL-6, IL-8, IL-1B, MCP-1 and CCL2. Additionally, markers of M1 polarization that can be detected by RNA include Nos2. M2 polarization is defined as increase in IL-10 and/or a decrease in the M1 cytokines listed above. Additionally, markers of M2 polarization that can be detected by RNA include Arg1, IDO, PF4, CCL24, IL10, and IL4Ralpha.

NK cells = experiment: NK cell ADCC against trastuzumab-coated Her2 expressing target cells; format: cell-based, human; settings: compared with NK cells pre-treated with beta adrenergic antagonist (nadolol or propranolol) prior to the agonist
Description: Primary Natural Killer (NK) cells are isolated from human peripheral blood using a magnetic bead-based separation kit that negatively selects NK cells by sequestering other defined cell types (T, B, monocytes, etc.). Isolated NK cells are incubated with a target cell line, for example a Her2 expressing cancer cell line that has been pre-coated with trastuzumab, an anti-Her2 antibody, at a range of target-to-effector cell ratios. Following antibody-dependent cell cytotoxicity (ADCC)—antibody-mediated killing of the target cells by the NK cells, the number of surviving target cells is assessed by a fluorescent viability stain.

[2] = Treatment of multiple sclerosis patient, MRI lesions; format: in vivo, human; settings: MS patient; oral 5 mg/day; MRI 3-6 month after treatment initiation
Description: A patient is diagnosed with multiple sclerosis (MS) by MRI criteria of >2 lesions. The patient is treated orally with propranolol at a dose regimen of 5 mg/day. An MRI scan is administered 3-6 month after treatment initiation. Further MRI scans are obtained at intervals of 6-12 months.

[3] = low sub-nanomolar concentrations, 72 hours post treatment
[4] = T cells from two different donors, 72 hours
[5] = T cells from two different donors, multiple time points

Q: Which “T cell production of pro-survival cytokine IL-2” value (primary human T cells; 24 and 48 hours post-treatment, nanomolar concentrations) does the source give for `NCCc1ccc(O)c(O)c1` [dopamine, Dopamine] here?
A: increase

Q: What about the “T cell production of pro-inflammatory cytokine IFNγ” value (primary human T cells; [3]) of the same compound?
A: increase

Q: And the “T cell production of pro-inflammatory cytokine IL-5” value (primary human T cells; [3])?
A: increase

Q: What about the “T cell production of pro-inflammatory cytokine IL-6” value (primary human T cells; [3]) of the same compound?
A: increase

Q: And the “T cell production of pro-inflammatory cytokine IL-10” value (primary human T cells; [3])?
A: increase

Q: What about the “T cell production of pro-inflammatory cytokine IL-13” value (primary human T cells; [3]) of the same compound?
A: increase

Q: For `O=C(CCCN1CCC(O)(c2ccc(Cl)cc2)CC1)c1ccc(F)cc1` [haloperidol, Haloperidol], which “quinpirole-induced increase of CCR7+ T cells in the lymph node after pre-treatment with antagonist” value [1] is on record?
A: inhibited

Q: With `CC(C)NCC(O)c1ccc(O)c(O)c1` (centres unmarked) [isoproterenol] as the compound, how does the “T cell production of pro-inflammatory cytokine IFNγ (FIG. 6A)” value (primary human T cells; [4]) read?
A: decreased

Q: What about the “T cell production of pro-inflammatory cytokine IL-10 (FIG. 6C)” value (primary human T cells; [4]) of the same compound?
A: decreased

Q: What about the “T cell production of pro-inflammatory cytokine TNFα (FIG. 6B)” value (primary human T cells; [4]) of the same compound?
A: decreased

Q: What about the “T cell production of pro-inflammatory cytokine IFNγ” value (primary human T cells; [5]) of the same compound?
A: decrease

Q: What about the “T cell production of pro-inflammatory cytokine IL-10” value (primary human T cells; [5]) of the same compound?
A: decrease

Q: What about the “T cell production of pro-inflammatory cytokine TNFα” value (primary human T cells; [5]) of the same compound?
A: decrease

Q: What about the “transcript of NOS2 in macrophages” value (macrophages; M1 marker) of the same compound?
A: decrease

Q: And the “transcript for Arg1 in macrophages” value (macrophages; M2 marker)?
A: increase

Q: And the “transcript for IL-10 in macrophages” value (macrophages; M2 marker)?
A: increase

Q: What about the macrophage polarization phenotype (macrophages; monocyte-derived macrophages, dilutions from 10 μM to 1 nM) of the same compound?
A: polarized toward an M2 phenotype

Q: For `CC(C)NCC(O)c1cc(O)cc(O)c1` (centres unmarked) [metaproterenol], which “ADCC induced by treated NK cells” value (NK cells) is on record?
A: significantly less ADCC

Q: Which “Gadolinium (Gd)-enhancing T1 lesions and/or new or enlarging (active) T2 lesions” value [2] does the source give for `CC(C)NCC(O)COc1cccc2ccccc12` (centres unmarked) [propranolol] here?
A: decrease

Q: For neuropeptide Y, which “T cell production of cytokine IL-4” value (primary human T cells; sub-nanomolar concentrations, 48 hours post-treatment) is on record?
A: increase
